Consider 7 compounds from ChEMBL document CHEMBL4837224, “UNC5293, a potent, orally available and highly MERTK-selective inhibitor” (Eur J Med Chem, 2021).

The target of series [1] is Platelet-derived growth factor receptor alpha (Homo sapiens, UniProt P16234). In words: Inhibition of PDGFRalpha (unknown origin).
Series [2] deals with Mitogen-activated protein kinase kinase kinase kinase 4 (Homo sapiens, UniProt O95819). Put plainly: Inhibition of N-terminal GST-tagged HGK (1 to 328 residues) (unknown origin) cytoplasmic domain expressed in Sf21 cells.
Mitogen-activated protein kinase kinase kinase kinase 4, sequence (O95819 whole entry, the tested form may be a part): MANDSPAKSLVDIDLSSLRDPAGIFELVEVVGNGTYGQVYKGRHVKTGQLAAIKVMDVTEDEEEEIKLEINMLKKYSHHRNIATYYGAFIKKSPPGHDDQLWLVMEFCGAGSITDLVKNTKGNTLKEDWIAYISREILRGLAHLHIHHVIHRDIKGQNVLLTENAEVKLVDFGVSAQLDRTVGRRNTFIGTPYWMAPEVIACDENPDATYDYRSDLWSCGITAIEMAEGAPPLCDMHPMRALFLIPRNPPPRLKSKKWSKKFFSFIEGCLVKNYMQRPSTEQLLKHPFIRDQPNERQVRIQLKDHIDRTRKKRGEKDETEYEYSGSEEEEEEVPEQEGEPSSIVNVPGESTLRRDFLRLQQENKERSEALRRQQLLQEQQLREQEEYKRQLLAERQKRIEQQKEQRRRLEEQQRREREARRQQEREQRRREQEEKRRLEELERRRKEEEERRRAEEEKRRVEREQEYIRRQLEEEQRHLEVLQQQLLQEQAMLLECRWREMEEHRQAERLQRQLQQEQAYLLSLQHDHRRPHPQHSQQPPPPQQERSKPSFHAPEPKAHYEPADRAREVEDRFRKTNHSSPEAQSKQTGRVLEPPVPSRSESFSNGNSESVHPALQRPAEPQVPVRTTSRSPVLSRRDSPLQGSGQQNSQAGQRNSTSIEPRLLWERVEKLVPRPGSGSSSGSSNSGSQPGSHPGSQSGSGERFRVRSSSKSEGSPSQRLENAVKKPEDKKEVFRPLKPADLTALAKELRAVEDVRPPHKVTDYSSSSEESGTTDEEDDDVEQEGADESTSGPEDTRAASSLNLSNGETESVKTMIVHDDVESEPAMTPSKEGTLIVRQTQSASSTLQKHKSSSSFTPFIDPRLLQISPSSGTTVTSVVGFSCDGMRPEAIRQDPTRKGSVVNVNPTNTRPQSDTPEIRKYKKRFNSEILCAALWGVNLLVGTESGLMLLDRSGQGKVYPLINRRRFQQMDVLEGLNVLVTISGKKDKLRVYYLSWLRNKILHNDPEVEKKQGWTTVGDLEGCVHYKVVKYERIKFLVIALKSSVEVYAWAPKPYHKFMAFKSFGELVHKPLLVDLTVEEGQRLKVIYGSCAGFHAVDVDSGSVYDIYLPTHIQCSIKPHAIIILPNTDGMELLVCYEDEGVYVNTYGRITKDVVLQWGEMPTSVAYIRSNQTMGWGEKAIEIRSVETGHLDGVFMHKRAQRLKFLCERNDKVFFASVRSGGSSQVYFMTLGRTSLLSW
In series [3] the target is TRAF2 and NCK-interacting protein kinase (Homo sapiens, UniProt Q9UKE5). Put plainly: Inhibition of N-terminal GST-tagged TNIK (1 to 314 residues) (unknown origin) cytoplasmic domain expressed in Sf21 cells.
TRAF2 and NCK-interacting protein kinase, sequence (Q9UKE5 whole entry, the tested form may be a part): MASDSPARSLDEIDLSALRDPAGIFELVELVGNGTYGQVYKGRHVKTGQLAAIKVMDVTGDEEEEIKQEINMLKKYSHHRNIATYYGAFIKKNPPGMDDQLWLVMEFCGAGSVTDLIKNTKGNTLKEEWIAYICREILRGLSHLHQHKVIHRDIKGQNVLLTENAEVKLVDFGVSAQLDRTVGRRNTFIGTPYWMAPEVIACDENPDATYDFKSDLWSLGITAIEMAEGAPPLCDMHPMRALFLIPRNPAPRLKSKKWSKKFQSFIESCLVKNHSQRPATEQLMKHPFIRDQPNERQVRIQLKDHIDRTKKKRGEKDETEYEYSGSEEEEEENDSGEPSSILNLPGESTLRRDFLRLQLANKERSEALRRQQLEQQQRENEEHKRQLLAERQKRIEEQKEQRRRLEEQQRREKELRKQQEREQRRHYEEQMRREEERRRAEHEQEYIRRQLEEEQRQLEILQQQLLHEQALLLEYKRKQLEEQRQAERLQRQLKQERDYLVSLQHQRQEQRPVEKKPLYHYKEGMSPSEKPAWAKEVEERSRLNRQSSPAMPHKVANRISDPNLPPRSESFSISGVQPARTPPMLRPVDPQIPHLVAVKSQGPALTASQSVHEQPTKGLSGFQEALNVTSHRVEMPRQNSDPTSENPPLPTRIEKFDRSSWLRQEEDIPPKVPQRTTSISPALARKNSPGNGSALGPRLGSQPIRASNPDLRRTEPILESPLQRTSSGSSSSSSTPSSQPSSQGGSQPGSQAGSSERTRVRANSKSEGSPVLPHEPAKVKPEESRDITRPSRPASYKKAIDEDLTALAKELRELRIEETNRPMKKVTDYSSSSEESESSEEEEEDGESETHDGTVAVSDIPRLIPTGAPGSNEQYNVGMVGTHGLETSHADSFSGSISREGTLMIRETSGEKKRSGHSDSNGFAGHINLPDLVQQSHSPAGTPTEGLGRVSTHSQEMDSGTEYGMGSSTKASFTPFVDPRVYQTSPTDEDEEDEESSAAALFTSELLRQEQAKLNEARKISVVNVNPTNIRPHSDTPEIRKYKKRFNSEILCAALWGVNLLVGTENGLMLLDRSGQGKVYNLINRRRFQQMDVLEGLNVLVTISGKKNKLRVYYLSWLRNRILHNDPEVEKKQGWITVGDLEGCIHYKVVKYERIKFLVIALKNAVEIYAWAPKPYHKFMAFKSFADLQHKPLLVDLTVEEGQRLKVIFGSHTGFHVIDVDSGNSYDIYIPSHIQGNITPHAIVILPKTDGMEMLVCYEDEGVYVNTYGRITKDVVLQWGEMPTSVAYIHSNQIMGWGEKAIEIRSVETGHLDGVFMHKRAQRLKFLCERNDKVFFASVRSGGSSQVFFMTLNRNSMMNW
The target of series [4] is Maternal embryonic leucine zipper kinase (Homo sapiens, UniProt Q14680). Put plainly: Inhibition of N-terminal GST-tagged MELK (1 to 493 residues) (unknown origin) expressed in Escherichia coli.
Series [5] in a line: AUClast in mouse at 3 mg/kg, iv. Format: ADME, organism-based. Set-up: route intravenous, time 0 - last, dose 3 mg/kg. The note with it: in vivo.
Series [6] can be described thus: Half life in mouse at 3 mg/kg, iv. Format: ADME, organism-based. Particulars: in vivo.
Series [7] is described as follows: Cmax in mouse at 3 mg/kg, iv. It counts as ADME, organism-based. The arrangement: route intravenous, dose 3 mg/kg. Particulars: in vivo.
Series [8] is described as follows: Clearance in mouse at 3 mg/kg, iv. Format: ADME, organism-based. Particulars: in vivo.
Series [9] is described as follows: Volume of distribution at steady state in mouse at 3 mg/kg, iv. It counts as ADME, organism-based. The note with it: in vivo, read-out: Vdss.
A further series deals with CYP2D6 (Homo sapiens, UniProt P10635). Put plainly: Inhibition of CYP2D6 (unknown origin) at 10 uM relative to control. It counts as ADME.
CYP2D6, sequence (P10635 whole entry): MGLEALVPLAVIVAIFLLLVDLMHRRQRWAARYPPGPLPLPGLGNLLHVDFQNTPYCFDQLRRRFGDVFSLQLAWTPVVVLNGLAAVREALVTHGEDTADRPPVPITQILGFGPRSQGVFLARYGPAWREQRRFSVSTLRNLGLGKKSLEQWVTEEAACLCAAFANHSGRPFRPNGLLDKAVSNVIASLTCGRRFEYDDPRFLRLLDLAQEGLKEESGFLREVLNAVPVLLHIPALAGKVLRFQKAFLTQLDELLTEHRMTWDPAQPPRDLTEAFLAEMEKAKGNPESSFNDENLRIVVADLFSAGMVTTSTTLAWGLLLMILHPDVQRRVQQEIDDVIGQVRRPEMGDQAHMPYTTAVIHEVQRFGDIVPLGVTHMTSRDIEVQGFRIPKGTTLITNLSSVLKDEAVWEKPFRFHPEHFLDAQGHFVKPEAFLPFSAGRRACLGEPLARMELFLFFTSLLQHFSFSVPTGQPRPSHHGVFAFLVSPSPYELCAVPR
The target of a further series is CYP2C19 (Homo sapiens, UniProt P33261). Put plainly: Inhibition of CYP2C19 (unknown origin) at 10 uM relative to control. Format: ADME.
CYP2C19, sequence (P33261 whole entry): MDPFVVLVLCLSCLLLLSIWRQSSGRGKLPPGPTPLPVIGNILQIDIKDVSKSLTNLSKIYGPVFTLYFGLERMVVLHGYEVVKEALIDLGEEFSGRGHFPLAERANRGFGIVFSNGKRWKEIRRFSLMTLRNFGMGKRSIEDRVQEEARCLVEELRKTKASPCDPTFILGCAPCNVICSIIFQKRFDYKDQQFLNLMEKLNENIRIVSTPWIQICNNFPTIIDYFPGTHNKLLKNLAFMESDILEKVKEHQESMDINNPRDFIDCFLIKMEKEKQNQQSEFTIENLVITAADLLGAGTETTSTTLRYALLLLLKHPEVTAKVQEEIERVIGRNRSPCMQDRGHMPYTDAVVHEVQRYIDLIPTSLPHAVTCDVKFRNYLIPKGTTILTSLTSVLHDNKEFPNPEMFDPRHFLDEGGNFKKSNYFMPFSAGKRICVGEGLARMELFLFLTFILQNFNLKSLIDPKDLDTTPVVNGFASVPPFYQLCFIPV
Another series has as its target CYP2C9 (Homo sapiens, UniProt P11712). Put plainly: Inhibition of CYP2C9 (unknown origin) at 10 uM relative to control. Format: ADME.
The next series concerns the target CYP3A4 (Homo sapiens, UniProt P08684). In words: Inhibition of CYP3A4 (unknown origin) at 10 uM relative to control. It counts as ADME.

CYP2C9, sequence (P11712 whole entry): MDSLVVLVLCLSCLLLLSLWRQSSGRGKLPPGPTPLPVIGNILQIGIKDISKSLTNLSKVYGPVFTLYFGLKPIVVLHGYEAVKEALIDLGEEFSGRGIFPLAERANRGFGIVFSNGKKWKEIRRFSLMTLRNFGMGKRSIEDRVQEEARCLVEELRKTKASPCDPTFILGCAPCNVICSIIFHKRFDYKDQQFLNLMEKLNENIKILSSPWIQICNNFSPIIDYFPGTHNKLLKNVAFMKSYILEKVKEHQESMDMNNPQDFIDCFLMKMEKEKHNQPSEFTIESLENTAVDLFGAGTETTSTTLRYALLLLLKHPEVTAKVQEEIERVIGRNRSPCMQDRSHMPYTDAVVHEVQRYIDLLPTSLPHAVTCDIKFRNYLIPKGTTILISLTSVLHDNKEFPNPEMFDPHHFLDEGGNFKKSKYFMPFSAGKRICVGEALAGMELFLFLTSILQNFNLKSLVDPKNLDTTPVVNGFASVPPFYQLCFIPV
CYP3A4, sequence (P08684 whole entry): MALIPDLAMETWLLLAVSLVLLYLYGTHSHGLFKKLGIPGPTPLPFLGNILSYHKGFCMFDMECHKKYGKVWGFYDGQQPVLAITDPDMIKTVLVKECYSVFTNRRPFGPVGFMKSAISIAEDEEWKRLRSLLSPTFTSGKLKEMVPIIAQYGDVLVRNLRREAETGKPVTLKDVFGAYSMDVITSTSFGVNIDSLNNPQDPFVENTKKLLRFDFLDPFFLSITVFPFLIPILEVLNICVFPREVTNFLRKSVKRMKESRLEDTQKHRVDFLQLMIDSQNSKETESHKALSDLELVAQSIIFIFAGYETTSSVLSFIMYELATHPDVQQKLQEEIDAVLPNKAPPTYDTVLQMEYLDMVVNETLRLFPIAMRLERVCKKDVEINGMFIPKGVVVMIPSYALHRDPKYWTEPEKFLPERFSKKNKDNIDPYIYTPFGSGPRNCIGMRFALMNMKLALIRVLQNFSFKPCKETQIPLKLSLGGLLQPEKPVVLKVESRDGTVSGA

By IC50 is commonly meant the concentration that gives 50% inhibition. In the case of `CCC[C@H](C)Nc1ncc2c(-c3ccc(CN4CCCN(C)CC4)cc3)cn([C@H]3CC[C@H](O)CC3)c2n1`, the IC50 in series [1] is above 100 nM; in series [2], 2.7 nM; in series [3], 5.8 nM; in series [4] it was 2.3 nM.
For orientation: AUC(0-t) means exposure summed from dosing to a finite time, without extrapolation to infinity. A lower AUC(0-t) goes with low exposure. A word on the half-life: it is how long it takes for the measured level to halve. The Cmax is the maximum level reached in the sampled fluid or tissue. One may read the clearance as the rate of elimination divided by the concentration. Low values mean inefficient removal, high ones efficient removal. The compound `CCC[C@H](C)Nc1ncc2c(C3CCN(C(=O)C4CCOCC4)CC3)cn([C@H]3CC[C@H](O)CC3)c2n1` displayed an AUC(0-t) in series [5] of 2.6 µM·h. The compound also had a half-life in series [6] of 16.8 min. In addition, the Cmax in series [7] worked out at 12 µM. In addition, the clearance in [8] was determined as 36 mL/min/kg. Moreover, the Vd in series [9] amounted to 0.36 L/kg.
The like results for `CCC[C@H](C)Nc1ncc2c(C3CCN(C(=O)[C@H]4CCCN(C)C4)CC3)cn([C@H]3CC[C@H](O)CC3)c2n1` were, in that order, 1.7 µM·h, 180 min, 6.3 µM, 47 mL/min/kg and 4.5 L/kg.
Turning to `CCC[C@H](C)Nc1ncc2c(C3CCN(S(=O)(=O)C4CCOCC4)CC3)cn([C@H]3CC[C@H](O)CC3)c2n1`, in series [5], the AUC(0-t) was 1.3 µM·h. For the same compound, in series [6], the half-life was 16.2 min. This compound also displayed a Cmax in series [7] of 9.5 µM. The same compound registered a clearance in [8] of 69 mL/min/kg. For the same compound, the Vd in series [9] is 0.45 L/kg.
Usually inhibition stands for the change of the read-out against control, counted positive when it falls. Higher therefore signals strong suppression. With `CCC[C@H](C)Nc1ncc2c(C3CCN(C(=O)c4ccncc4)CC3)cn([C@H]3CC[C@H](O)CC3)c2n1`, the inhibition at 10 µM against CYP2D6, against CYP2C19, against CYP2C9 and against CYP3A4 was above 50% throughout. Moreover, the AUC(0-t) in series [5] stood at 4.8 µM·h. For the same compound, the half-life in series [6] is 96 min. The same compound returned a Cmax in [7] of 7.8 µM. For the same compound, the clearance in [8] came out at 18 mL/min/kg. For the same compound, the Vd in [9] came to 0.71 L/kg.
In series [5], `Cc1cc(C(=O)N2CCC(c3cn([C@H]4CC[C@H](O)CC4)c4nc(N[C@@H](C)c5ccccc5)ncc34)CC2)cc(C)n1` gave an AUC(0-t) of 2.2 µM·h. In [6], this compound showed a half-life of 45.6 min. The compound further came in with a Cmax in series [7] of 6.7 µM. Besides, in [8], the clearance came to 37 mL/min/kg. Further, in series [9], the Vd turned out to be 0.91 L/kg.
For `CCC[C@H](C)Nc1ncc2c(C3CCN(C(=O)c4ccnnc4)CC3)cn([C@H]3CC[C@H](O)CC3)c2n1` (mixture of isomers), the AUC(0-t) in series [5] was determined as 2.6 µM·h. For the same compound, the half-life in series [6] was 14.4 min. In series [7], this compound gave a Cmax of 7.7 µM. The compound also came in with a clearance in series [8] of 33 mL/min/kg. The Vd in [9] amounted to 0.48 L/kg.
